Measured values reported in ChEMBL document CHEMBL5321235, “Design, synthesis, and SAR study of novel flavone 1,2,4-oxadiazole derivatives with anti-inflammatory activities for the treatment of Parkinson's disease” (Eur J Med Chem, 2023).
Activity calls are given as the source filed them. The calls are words filed in the database; no cut-off is given here.

Key:
BV-2 [1] = assay: Inhibition of LPS-induced ROS production in mouse BV-2 cells at 5 uM pretreated for 18 hrs followed by LPS-stimulation and measured after 6 hrs by fluorescence microscopic analysis; type: functional, cell-based; details: time 24.0 hrs
Microglia = assay: Neuroprotective activity against MPTP-induced apoptosis in mouse microglia assessed as reduction in apoptotic cells in brain tissue at 15 mg/kg, ip administered with compound once daily for 2 weeks followed by MPTP addition on day 8 and measured after 2 weeks of compound addition by TUNEL staining based immunofluorescence analysis; type: functional, organism-based
BV-2 [2] = assay: Antiinflammatory activity in mouse BV-2 cells assessed as inhibition of LPS-induced NO production at 5 uM pretreated for 18 hrs followed by LPS-induction and measured after 6 hrs relative to control; type: functional; design: scale not given: the % may be the effect or the level left; details: time 24 hrs

Row | Compound | inhibition (BV-2 [1]) | Activity (Microglia) | Activity (BV-2 [2]) [%]
1 | COc1ccc(-c2coc3cc(O)cc(O)c3c2=O)cc1 | Active | – | –
2 | C#CCN[C@@H]1CCc2ccccc21 | Active | Active | –
3 | Cc1ccc(-c2noc(-c3ccc(F)c(F)c3)n2)cn1 | Active | – | –
4 | Cc1c(-c2ccccc2)oc2c(-c3nc(-c4ccccc4)no3)cccc2c1=O | Active | – | 22.4
5 | COc1ccccc1-c1noc(-c2cccc3c(=O)c(C)c(-c4ccccc4)oc23)n1 | inactive | – | 41.6
6 | Cc1c(-c2ccccc2)oc2c(-c3nc(-c4ccccc4F)no3)cccc2c1=O | Active | – | 41.6
7 | Cc1ccccc1-c1noc(-c2cccc3c(=O)c(C)c(-c4ccccc4)oc23)n1 | Active | – | 22.4
8 | COc1ccc(-c2noc(-c3cccc4c(=O)c(C)c(-c5ccccc5)oc34)n2)cc1 | Active | – | 22.4
9 | Cc1c(-c2ccccc2)oc2c(-c3nc(-c4ccsc4)no3)cccc2c1=O | Active | – | –
